Laboratory results reported in ChEMBL document CHEMBL1201862, “PubChem BioAssay data set” (2004).
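Exposure lasted 48 hours, with cells grown in 96-well plates and compounds tested at five concentrations. Abbreviation: GI50, concentration required for 50% inhibition of growth.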 The source made the active and inactive calls. Cut-off read from the data, not from the text of the source: active = GI50 up to about 1.1 µM and inactive = higher.

Tests used:
Assay in all cases: NCI tumour cell line growth inhibition, 48 h
786-0 = test system: 786-0
CAKI-1 = test system: CAKI-1
DU-145 = test system: DU-145
HCT-15 = test system: HCT-15
IGROV-1 = test system: IGROV-1
K562 = test system: K562
LOX IMVI = test system: LOX IMVI
MOLT-4 = test system: MOLT-4
NCI-H460 = test system: NCI-H460
NCI-H522 = test system: NCI-H522
OVCAR-5 = test system: OVCAR-5
OVCAR-8 = test system: OVCAR-8
SK-MEL-2 = test system: SK-MEL-2
SK-MEL-5 = test system: SK-MEL-5
SNB-75 = test system: SNB-75
SW-620 = test system: SW-620
T47D = test system: T47D
UACC-257 = test system: UACC-257
RPMI-8226 = test system: RPMI-8226
Hs-578T = test system: Hs-578T

Row | Compound | GI50 (786-0) | GI50 (CAKI-1) | GI50 (DU-145) | GI50 (HCT-15) [µM] | GI50 (IGROV-1) | GI50 (K562) | GI50 (LOX IMVI) | GI50 (MOLT-4) | GI50 (NCI-H460) | GI50 (NCI-H522) | GI50 (OVCAR-5) | GI50 (OVCAR-8) | GI50 (SK-MEL-2) | GI50 (SK-MEL-5) | GI50 (SNB-75) | GI50 (SW-620) | GI50 (T47D) | GI50 (UACC-257) | GI50 (RPMI-8226) | GI50 (Hs-578T)
1 | O=C(O)c1cccc(S(=O)(=O)NN2C(=O)CSC2c2c(O)ccc3ccccc23)c1 (stereo not given) | 39.4 µM (inactive) | 25.5 µM (inactive) | 44.7 µM (inactive) | 42.5 | 18 µM (inactive) | 31.3 µM (inactive) | 27.4 µM (inactive) | 19 µM (inactive) | 34.7 µM (inactive) | 27.8 µM (inactive) | 79.3 µM (inactive) | < 0.01 µM (active) | 33.5 µM (inactive) | 21 µM (inactive) | 30.6 µM (inactive) | 21.1 µM (inactive) | 22.5 µM (inactive) | 56.4 µM (inactive) | – | –
2 | Nc1cc(N2CCCC2)nc(=O)n1-c1ccccc1 | > 100 µM (inactive) | > 100 µM (inactive) | > 100 µM (inactive) | > 100 | > 100 µM (inactive) | > 100 µM (inactive) | > 100 µM (inactive) | > 100 µM (inactive) | > 100 µM (inactive) | > 100 µM (inactive) | > 100 µM (inactive) | > 100 µM (inactive) | > 100 µM (inactive) | > 100 µM (inactive) | > 100 µM (inactive) | > 100 µM (inactive) | – | > 100 µM (inactive) | > 100 µM (inactive) | –
3 | COc1ccc(C2OCCN2C)cc1 (stereo not given) | > 100 µM (inactive) | > 100 µM (inactive) | – | > 100 | > 100 µM (inactive) | > 100 µM (inactive) | 58.2 µM (inactive) | > 100 µM (inactive) | 87.1 µM (inactive) | > 100 µM (inactive) | > 100 µM (inactive) | > 100 µM (inactive) | > 100 µM (inactive) | > 100 µM (inactive) | 36.9 µM (inactive) | > 100 µM (inactive) | > 100 µM (inactive) | > 100 µM (inactive) | > 100 µM (inactive) | > 100 µM (inactive)
4 | COc1ccc(NC(S)=Nc2cccc(C)n2)cc1 | 54 µM (inactive) | 37.9 µM (inactive) | > 100 µM (inactive) | 78.2 | 70.6 µM (inactive) | 75.3 µM (inactive) | > 100 µM (inactive) | > 100 µM (inactive) | > 100 µM (inactive) | – | – | 96.8 µM (inactive) | > 100 µM (inactive) | > 100 µM (inactive) | 69.5 µM (inactive) | > 100 µM (inactive) | > 100 µM (inactive) | > 100 µM (inactive) | > 100 µM (inactive) | 58.2 µM (inactive)
5 | COCCN(C(C)=O)C1CCC2(SCCS2)c2[nH]c3ccccc3c21 (stereo not given) | > 100 µM (inactive) | > 100 µM (inactive) | > 100 µM (inactive) | > 100 | > 100 µM (inactive) | > 100 µM (inactive) | > 100 µM (inactive) | 56.9 µM (inactive) | 77.6 µM (inactive) | > 100 µM (inactive) | > 100 µM (inactive) | > 100 µM (inactive) | – | > 100 µM (inactive) | > 100 µM (inactive) | > 100 µM (inactive) | – | > 100 µM (inactive) | 35.5 µM (inactive) | > 100 µM (inactive)
6 | C[C@]12CC[C@@H]3c4ccc(OC(=O)c5ccccc5)cc4CC[C@H]3[C@@H]1CC[C@@H]2Oc1c2ccccc2nc2ccccc12 | 7.66 µM (inactive) | 9.73 µM (inactive) | 9.23 µM (inactive) | 9.73 | 12.5 µM (inactive) | 6.38 µM (inactive) | 7.85 µM (inactive) | 8.87 µM (inactive) | 8.53 µM (inactive) | 8.15 µM (inactive) | 16.6 µM (inactive) | 13 µM (inactive) | 16.2 µM (inactive) | 8.61 µM (inactive) | 10 µM (inactive) | 16.9 µM (inactive) | – | 13.6 µM (inactive) | 7.69 µM (inactive) | 5.5 µM (inactive)
7 | CC(=O)Oc1c(C)cc(-c2cc(C)c(OC(C)=O)c(C)c2)cc1C | 36.3 µM (inactive) | 57.9 µM (inactive) | 41.7 µM (inactive) | 20.3 | 40.9 µM (inactive) | > 100 µM (inactive) | 17.2 µM (inactive) | > 100 µM (inactive) | 39.9 µM (inactive) | 24 µM (inactive) | 43.7 µM (inactive) | 37.1 µM (inactive) | 41.6 µM (inactive) | 25.4 µM (inactive) | 16.2 µM (inactive) | 10.2 µM (inactive) | – | 41.6 µM (inactive) | > 100 µM (inactive) | 15.7 µM (inactive)
8 | Nc1ncnc2c1ncn2C1OC(COC2C(CO)OC(OC(C(=O)O)C(O)C(OP(=O)(O)O)C(O)C(=O)O)C(O)C2O)C(O)C1O (stereo not given) | > 100 µM (inactive) | > 100 µM (inactive) | – | > 100 | > 100 µM (inactive) | > 100 µM (inactive) | > 100 µM (inactive) | > 100 µM (inactive) | > 100 µM (inactive) | 59.3 µM (inactive) | > 100 µM (inactive) | > 100 µM (inactive) | > 100 µM (inactive) | > 100 µM (inactive) | > 100 µM (inactive) | > 100 µM (inactive) | – | > 100 µM (inactive) | > 100 µM (inactive) | 14.9 µM (inactive)
9 | Cc1cn(CCCCCCOC(=O)NC(CCCNC(=N)N)C(=O)O)c(=O)[nH]c1=O (stereo not given) | > 100 µM (inactive) | > 100 µM (inactive) | > 100 µM (inactive) | > 100 | > 100 µM (inactive) | > 100 µM (inactive) | > 100 µM (inactive) | > 100 µM (inactive) | > 100 µM (inactive) | – | > 100 µM (inactive) | > 100 µM (inactive) | > 100 µM (inactive) | – | > 100 µM (inactive) | > 100 µM (inactive) | > 100 µM (inactive) | > 100 µM (inactive) | > 100 µM (inactive) | > 100 µM (inactive)
10 | CCOC(=O)NC | > 100 µM (inactive) | > 100 µM (inactive) | > 100 µM (inactive) | > 100 | > 100 µM (inactive) | > 100 µM (inactive) | > 100 µM (inactive) | – | > 100 µM (inactive) | – | > 100 µM (inactive) | – | > 100 µM (inactive) | > 100 µM (inactive) | > 100 µM (inactive) | > 100 µM (inactive) | > 100 µM (inactive) | > 100 µM (inactive) | > 100 µM (inactive) | > 100 µM (inactive)
11 | C=C1CCc2ccccc2C1=O | > 100 µM (inactive) | > 100 µM (inactive) | > 100 µM (inactive) | > 100 | > 100 µM (inactive) | 37.9 µM (inactive) | – | 64.7 µM (inactive) | > 100 µM (inactive) | > 100 µM (inactive) | > 100 µM (inactive) | > 100 µM (inactive) | > 100 µM (inactive) | > 100 µM (inactive) | > 100 µM (inactive) | > 100 µM (inactive) | – | > 100 µM (inactive) | > 100 µM (inactive) | > 100 µM (inactive)
12 | CN1C(=O)C(=Cc2ccc(Br)cc2)C(=O)N(C)C1=O | > 100 µM (inactive) | > 100 µM (inactive) | > 100 µM (inactive) | > 100 | – | 5.45 µM (inactive) | > 100 µM (inactive) | 14.1 µM (inactive) | > 100 µM (inactive) | – | > 100 µM (inactive) | – | > 100 µM (inactive) | > 100 µM (inactive) | > 100 µM (inactive) | > 100 µM (inactive) | > 100 µM (inactive) | > 100 µM (inactive) | > 100 µM (inactive) | –
13 | COc1cc2c(cc1OCCCCN1C(=O)c3cccc4cccc(c34)C1=O)N=C[C@@H]1CCCN1C2=O | 2.64 µM (inactive) | 2.58 µM (inactive) | 4.01 µM (inactive) | 3.99 | 2.07 µM (inactive) | 4.15 µM (inactive) | 3.83 µM (inactive) | 3.25 µM (inactive) | 3.96 µM (inactive) | 1.68 µM (inactive) | 4.95 µM (inactive) | 3.11 µM (inactive) | 3.47 µM (inactive) | 2.01 µM (inactive) | – | 4.92 µM (inactive) | 7.93 µM (inactive) | 7.05 µM (inactive) | 2.69 µM (inactive) | –
14 | CC1(C)[N+]([O-])=[N+]([O-])C1(C)Br (stereo not given) | > 100 µM (inactive) | > 100 µM (inactive) | – | > 100 | > 100 µM (inactive) | > 100 µM (inactive) | > 100 µM (inactive) | > 100 µM (inactive) | > 100 µM (inactive) | > 100 µM (inactive) | > 100 µM (inactive) | > 100 µM (inactive) | > 100 µM (inactive) | > 100 µM (inactive) | > 100 µM (inactive) | > 100 µM (inactive) | – | > 100 µM (inactive) | – | > 100 µM (inactive)
15 | COC(=O)C1CC2CC(=NNC(N)=O)CC2C1 (stereo not given) | > 100 µM (inactive) | > 100 µM (inactive) | – | > 100 | > 100 µM (inactive) | > 100 µM (inactive) | > 100 µM (inactive) | > 100 µM (inactive) | > 100 µM (inactive) | > 100 µM (inactive) | > 100 µM (inactive) | > 100 µM (inactive) | > 100 µM (inactive) | > 100 µM (inactive) | > 100 µM (inactive) | > 100 µM (inactive) | – | > 100 µM (inactive) | > 100 µM (inactive) | –
16 | C[n+]1c(-c2ccccc2)cc2/c(=C\c3ccccc3)c3ccccc3n21 | 0.906 µM (active) | 2.94 µM (inactive) | 2.54 µM (inactive) | 3.47 | 1.09 µM (active) | 7.03 µM (inactive) | 1.25 µM (inactive) | 1.73 µM (inactive) | – | 0.363 µM (active) | 3.4 µM (inactive) | 0.361 µM (active) | 0.832 µM (active) | 0.667 µM (active) | 0.422 µM (active) | 1.06 µM (active) | – | 0.991 µM (active) | – | 0.116 µM (active)
